In one assay the target is T1, ERK1 (Homo sapiens, UniProt P27361).
T1 construct: purchased Jubilant Biosys
The experiment in a line: ERK1 HTRF (biochemical) assay. The following applies: HTRF. As to the method:
ERK1 and ERK2 HTRF (Biochemical) Assays
These assays employed a homogeneous time resolved fluorescence (HTRF) technique. […] The plate was incubated at room temperature for 60 min with shaking. […] The IC50 values (half maximal inhibitory concentration values) were subsequently determined using a sigmoidal dose-response curve (variable slope) in GraphPad Prism® 5 software.
Background: Time-resolved FRET reads energy transfer from a long-lived donor to a nearby acceptor.

For the next assay, the target named is T2, ERK2 (Homo sapiens, UniProt P28482).
T2 construct: purchased Jubilant Biosys
T2 sequence (P28482 whole entry): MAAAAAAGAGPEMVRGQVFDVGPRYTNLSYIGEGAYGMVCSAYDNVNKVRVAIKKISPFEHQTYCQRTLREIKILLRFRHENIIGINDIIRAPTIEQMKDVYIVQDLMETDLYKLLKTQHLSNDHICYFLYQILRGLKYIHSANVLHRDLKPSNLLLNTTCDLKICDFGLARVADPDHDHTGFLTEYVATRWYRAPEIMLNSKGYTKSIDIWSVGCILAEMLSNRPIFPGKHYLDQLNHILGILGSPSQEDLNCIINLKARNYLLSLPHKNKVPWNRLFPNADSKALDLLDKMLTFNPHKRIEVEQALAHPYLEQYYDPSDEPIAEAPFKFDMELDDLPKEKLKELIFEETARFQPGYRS
The experiment in a line: ERK2 HTRF (biochemical) assay. To be noted: HTRF. The procedure, abridged:
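Compounds were tested as half-log dilutions from 0.0005 to 10 uM in Tris pH 7.5/MgCl2 buffer, with a substrate mix of 1 uM biotin-MBP peptide and 24 uM ATP and an enzyme mix of 25 nM ERK2. Reaction ran 60 min at room temperature. Phospho-MBP was detected by HTRF (Eu-anti-phospho-MBP/SA-APC, 665/620 nm), and IC50 was fitted with a variable-slope sigmoidal curve.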

Each structure is given as a SMILES string. Structures can show the parent of a compound that is named as a salt.

T1 sequence (P27361 whole entry): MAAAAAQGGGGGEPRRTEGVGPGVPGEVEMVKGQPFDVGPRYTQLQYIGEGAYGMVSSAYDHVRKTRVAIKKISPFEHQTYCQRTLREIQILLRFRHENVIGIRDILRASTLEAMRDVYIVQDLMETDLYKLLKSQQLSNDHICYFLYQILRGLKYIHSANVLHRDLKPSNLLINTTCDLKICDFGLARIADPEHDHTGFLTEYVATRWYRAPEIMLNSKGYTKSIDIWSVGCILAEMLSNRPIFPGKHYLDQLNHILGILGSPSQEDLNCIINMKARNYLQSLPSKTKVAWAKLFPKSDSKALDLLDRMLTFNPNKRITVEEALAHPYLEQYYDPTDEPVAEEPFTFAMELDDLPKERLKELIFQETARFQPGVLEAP

What is called IC50 is the midpoint of a concentration-inhibition curve. Consider `Cc1cnc(Nc2ccc(F)c(C(=O)N(C)C)c2)nc1-n1ccc(C(=O)NC(CO)c2cccc(Cl)c2)c1` (centres unmarked) [Compound 194, N-(1-(3-chloro-phenyl)-2-hydroxyethyl)-1-(2-((3-(dimethyl-carbamoyl)-4-fluorophenyl)amino)-5-methyl-pyrimidin-4-yl)-1H-pyrrole-3-carboxamide], for which the IC50 was less than 50 nM on ERK1 and not above 50 nM on ERK2.

Take `Cc1cnc(NC2CCCCC2)nc1-n1ccc(C(=O)NC(CO)c2cccc(Cl)c2)c1` (centres unmarked) [Compound 195, N-(1-(3-chlorophenyl)-2-hydroxyethyl)-1-(2-(cyclohexylamino)-5-methylpyrimidin-4-yl)-1H-pyrrole-3-carboxamide]: the concentration for half-maximal inhibition (IC50) at ERK1 is less than 50 nM; on ERK2, not above 50 nM.

As to `CNC(=O)c1ccc(Nc2ncc(C)c(-n3ccc(C(=O)NC(CO)c4cccc(Cl)c4)c3)n2)cc1` (centres unmarked) [Compound 196, N-(1-(3-chloro-phenyl)-2-hydroxy-ethyl)-1-(5-methyl-2-((4-(methyl-carbamoyl)phenyl)amino)pyrimidin-4-yl)-1H-pyrrole-3-carboxamide], the results for the IC50 against ERK1 and against ERK2 were less than 50 nM and not above 50 nM, respectively.

On to `CCC(C)Nc1ncc(C)c(-n2ccc(C(=O)N[C@H](CO)c3ccc(F)c(Cl)c3)c2)n1` (stereo partly drawn) [Compound 197, 1-(2-(sec-butylamino)-5-methylpyrimidin-4-yl)-N-((S)-1-(3-chloro-4-fluoro-phenyl)-2-hydroxy-ethyl)-1H-pyrrole-3-carboxamide], for which the IC50 is less than 50 nM at ERK1 and not above 50 nM on ERK2.

In the case of `Cc1cnc(Nc2ccc3c(c2)CC(=O)N3)nc1-n1ccc(C(=O)NC(CO)c2cccc(Cl)c2)c1` (centres unmarked) [Compound 198, N-(1-(3-chloro-phenyl)-2-hydroxy-ethyl)-1-(5-methyl-2-((2-oxoindolin-5-yl)amino)pyrimidin-4-yl)-1H-pyrrole-3-carboxamide], the IC50 was less than 50 nM on ERK1 and not above 50 nM against ERK2.

`Cc1cnc(NC2CCCN(C)C2)nc1-n1ccc(C(=O)NC(CO)c2cccc(Cl)c2)c1` (centres unmarked) [Compound 199, N-(1-(3-chloro-phenyl)-2-hydroxy-ethyl)-1-(5-methyl-2-((1-methyl-piperidin-3-yl)-amino)pyrimidin-4-yl)-1H-pyrrole-3-carboxamide]: the figures for the half-maximal inhibitory concentration (IC50) against ERK1 and on ERK2 were less than 50 nM and not above 50 nM, respectively.

In the case of `Cc1cnc(NC2CCCCC2O)nc1-n1ccc(C(=O)NC(CO)c2ccc(F)c(Cl)c2)c1` (centres unmarked) [Compound 202, N-(1-(3-chloro-4-fluorophenyl)-2-hydroxyethyl)-1-(2-((2-hydroxy-cyclohexyl)amino)-5-methylpyrimidin-4-yl)-1H-pyrrole-3-carboxamide], the IC50 at ERK1 and at ERK2 was 50 to 100 nM in each case.

Regarding `Cc1cnc(NC2(CO)CC2)nc1-n1ccc(C(=O)NC(CO)c2ccc(F)c(Cl)c2)c1` (centres unmarked) [Compound 203, N-(1-(3-chloro-4-fluorophenyl)-2-hydroxyethyl)-1-(2-((1-(hydroxy-methyl)cyclopropyl)amino)-5-methyl-pyrimidin-4-yl)-1H-pyrrole-3-carboxamide], the IC50 against ERK1 and on ERK2 was 100 to 500 nM each time.

Consider `Cc1cnc(N[C@H]2CCOC2)nc1-n1ccc(C(=O)NC(CO)c2ccc(F)cc2)c1` (stereo partly drawn) [Compound 204, N-(1-(4-fluoro-phenyl)-2-hydroxy-ethyl)-1-(5-methyl-2-(((S)-tetrahydro-furan-3-yl)amino)-pyrimidin-4-yl)-1H-pyrrole-3-carboxamide], for which the IC50 against ERK1 and against ERK2 was 50 to 100 nM throughout.

Turning to `Cc1cnc(Nc2ccc(N3CCOCC3)cc2)nc1-n1ccc(C(=O)NC(CO)c2cccc(Cl)c2)c1` (centres unmarked) [Compound 205, N-(1-(3-chlorophenyl)-2-hydroxyethyl)-1-(5-methyl-2-((4-morpholinophenyl)amino)pyrimidin-4-yl)-1H-pyrrole-3-carboxamide], the IC50 at ERK1 was less than 50 nM; against ERK2, not above 50 nM.

Regarding `NCC(NC(=O)c1ccn(-c2ccnc(Nc3ccc(F)cc3)c2)c1)c1ccccc1` (centres unmarked) [Compound 206, N-(2-amino-1-phenylethyl)-1-(2-((4-fluorophenyl)-amino)pyridin-4-yl)-1H-pyrrole-3-carboxamide], the IC50 is less than 50 nM at ERK1 and not above 50 nM against ERK2.

`Cc1cccc([C@@H](CO)NC(=O)c2ccn(-c3nc(N[C@H]4CCOC4)ncc3C)c2)n1` [Compound 207, N-((S)-2-hydroxy-1-(6-methylpyridin-2-yl)ethyl)-1-(5-methyl-2-(((S)-tetrahydrofuran-3-yl)amino)pyrimidin-4-yl)-1H-pyrrole-3-carboxamide]: the IC50 on ERK1 was less than 50 nM; against ERK2 it was not above 50 nM.

As to `Cc1cnc(NC2CCN(C)C2)nc1-n1ccc(C(=O)N[C@H](CO)c2cccc(Cl)c2)c1` (stereo partly drawn) [Compound 208, N-((S)-1-(3-chlorophenyl)-2-hydroxyethyl)-1-(5-methyl-2-((1-methylpyrrolidin-3-yl)amino)pyrimidin-4-yl)-1H-pyrrole-3-carboxamide], the values for the IC50 on ERK1 and on ERK2 were less than 50 nM and not above 50 nM, respectively.

`Cc1cnc(Nc2ccc3[nH]cc(C4=CCNCC4)c3c2)nc1-n1ccc(C(=O)NC(CO)c2cccc(Cl)c2)c1` (centres unmarked) [Compound 209, N-(1-(3-chlorophenyl)-2-hydroxyethyl)-1-(5-methyl-2-((3-(1,2,3,6-tetrahydro-pyridin-4-yl)-1H-indol-5-yl)amino)-pyrimidin-4-yl)-1H-pyrrole-3-carboxamide hydrochloride]: the IC50 is less than 50 nM at ERK1 and not above 50 nM against ERK2.

With `Cc1cnc(N[C@H]2CCOC2)nc1-n1ccc(C(=O)N(C)C(CO)c2cccc(Cl)c2)c1` (stereo partly drawn) [Compound 212, N-(1-(3-chlorophenyl)-2-hydroxyethyl)-N-methyl-1-(5-methyl-2-(((S)-tetrahydrofuran-3-yl)amino)-pyrimidin-4-yl)-1H-pyrrole-3-carboxamide], the IC50 was less than 50 nM against ERK1 and not above 50 nM against ERK2.

With `Cc1cnc(Nc2ccc(F)c(N3CCNCC3)c2)nc1-n1ccc(C(=O)NC(CO)c2cccc(Cl)c2)c1` (centres unmarked) [Compound 213, N-(1-(3-chlorophenyl)-2-hydroxyethyl)-1-(2-((4-fluoro-3-(piperazin-1-yl)phenyl)amino)-5-methylpyrimidin-4-yl)-1H-pyrrole-3-carboxamide], the results for the IC50 on ERK1 and on ERK2 were less than 50 nM and not above 50 nM, respectively.

Take `Cc1cnc(NC2CCNCC2)nc1-n1cnc(C(=O)NC(CO)c2cccc(Cl)c2)c1` (centres unmarked) [Compound 214, N-(1-(3-chlorophenyl)-2-hydroxyethyl)-1-(5-methyl-2-(piperidin-4-ylamino)pyrimidin-4-yl)-1H-imidazole-4-carboxamide]: the results for the IC50 at ERK1 and on ERK2 were less than 50 nM and not above 50 nM, respectively.

Consider `Cc1cnc(Nc2ccc(C3CCNCC3)cc2)nc1-n1ccc(C(=O)NC(CO)c2cccc(Cl)c2)c1` (centres unmarked) [Compound 215, N-(1-(3-chlorophenyl)-2-hydroxyethyl)-1-(5-methyl-2-((4-(piperidin-4-yl)phenyl)amino)pyrimidin-4-yl)-1H-pyrrole-3-carboxamide], for which the IC50 is 50 to 100 nM on ERK1 and not above 50 nM against ERK2.

With `Cc1cnc(Nc2ccc(C3CCNCC3)c(F)c2)nc1-n1ccc(C(=O)NC(CO)c2cccc(Cl)c2)c1` (centres unmarked) [Compound 216, N-(1-(3-chlorophenyl)-2-hydroxyethyl)-1-(2-((3-fluoro-4-(piperidin-4-yl)phenyl)amino)-5-methylpyrimidin-4-yl)-1H-pyrrole-3-carboxamide], the IC50 on ERK1 is less than 50 nM; against ERK2 it was not above 50 nM.

`Cc1cnc(NC2CCOCC2)nc1-n1cnc(C(=O)N[C@@H](CO)c2cccc(Cl)c2)c1` [Compound 217, (R)-N-(1-(3-chlorophenyl)-2-hydroxyethyl)-1-(5-methyl-2-((tetrahydro-2H-pyran-4-yl)amino)-pyrimidin-4-yl)-1H-imidazole-4-carboxamide]: the IC50 against ERK1 and at ERK2 was 100 to 500 nM throughout.

With `CC[C@@H](CO)Nc1ncc(C)c(-n2ccc(C(=O)N[C@@H](CO)c3cccc(Cl)c3)c2)n1` [Compound 218, N-((R)-1-(3-chlorophenyl)-2-hydroxyethyl)-1-(2-(((S)-1-hydroxy-butan-2-yl)amino)-5-methylpyrimidin-4-yl)-1H-pyrrole-3-carboxamide], the values for the IC50 at ERK1 and against ERK2 were 100 to 500 nM and 500 to 2500 nM, respectively.

In the case of `CC[C@@H](CO)Nc1ncc(C)c(-n2ccc(C(=O)N[C@H](CO)c3cccc(Cl)c3)c2)n1` [Compound 219, N-((S)-1-(3-chlorophenyl)-2-hydroxyethyl)-1-(2-(((S)-1-hydroxy-butan-2-yl)amino)-5-methylpyrimidin-4-yl)-1H-pyrrole-3-carboxamide], the IC50 was less than 50 nM at ERK1 and not above 50 nM against ERK2.

On to `CC[C@@H](CO)Nc1ncc(C)c(-n2cnc(C(=O)N[C@H](CO)c3cccc(Cl)c3)c2)n1` [Compound 220, N-((S)-1-(3-chlorophenyl)-2-hydroxyethyl)-1-(2-(((S)-1-hydroxy-butan-2-yl)amino)-5-methylpyrimidin-4-yl)-1H-imidazole-4-carboxamide], for which the values for the IC50 on ERK1 and against ERK2 were less than 50 nM and not above 50 nM, respectively.

For `NCC(NC(=O)c1cn(-c2ccnc(Nc3ccc(F)cc3)c2)cn1)c1ccccc1` (centres unmarked) [Compound 221, N-(2-amino-1-phenylethyl)-1-(2-((4-fluorophenyl)-amino)pyridin-4-yl)-1H-imidazole-4-carboxamide], the IC50 at ERK1 is less than 50 nM; against ERK2, not above 50 nM.

For the compound `Cc1cnc(Nc2ccc(F)cc2)cc1-n1cnc(C(=O)NC(CO)c2ccccc2)c1` (centres unmarked) [Compound 222, 1-(2-((4-fluorophenyl)amino)-5-methylpyridin-4-yl)-N-(2-hydroxy-1-phenylethyl)-1H-imidazole-4-carboxamide], the IC50 is 100 to 500 nM on ERK1 and 50 to 100 nM at ERK2.

For the origin of these results see patent US9896445B2, “Heterocyclic inhibitors of ERK1 and ERK2 and their use in the treatment of cancer” (Asana Biosciences, LLC, priority 2015, dated 2018).
